Patent publication US8796268B2, “Heteroaryls and uses thereof” (Millennium Pharmaceuticals, Inc., priority 2010, dated 2014)

Key:
Format in all cases: biochemical
Human PI3K alpha = target: T1, Human PI3K alpha (Homo sapiens, UniProt P42336); test: Human PI3K alpha enzyme assay (HTRF); settings: concentration not given, b1387 states 1.1 μM for PI3K α and β; for inhibition at 1.1 µM: read-out: p110 alpha Percent Inhibition
T1 construct: His (N); host or cells: SF9 insect cells (baculovirus)

Human PI3K beta = target: T2, Human PI3K beta (Homo sapiens, UniProt P42338); test: Human PI3K beta enzyme assay (HTRF); settings: concentration not given, b1387 states 1.1 μM for PI3K α and β; for inhibition at 1.1 µM: read-out: p110 beta Percent Inhibition
T2 construct: His (N); host or cells: SF9 insect cells (baculovirus)
Procedure, shortened: (§1)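 Compounds were mixed with 25 uM ATP, then with 3.5 uM di-C8 PI(4,5)P2 and His-tagged PI3K isoform (β 5.25 nM, δ 0.75 nM, γ 5 nM) at pH 7.00. After 30 min at room temperature, EDTA stopped the reaction and PIP3 was measured by HTRF over 1 h.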

Human PI3K delta = target: T3, Human PI3K delta (Homo sapiens, UniProt O00329); test: Human PI3K delta enzyme assay (HTRF); settings: concentration not given, b1389 states 1.0 μM for PI3K δ and γ; for inhibition at 1 µM: read-out: p110 delta Percent Inhibition
T3 construct: His (N); host or cells: SF9 insect cells (baculovirus)
Procedure, shortened: as §1

Human PI3K gamma = target: T4, Human PI3K gamma (Homo sapiens, UniProt P48736); test: Human PI3K gamma enzyme assay (HTRF); settings: concentration not given, b1389 states 1.0 μM for PI3K δ and γ; for inhibition at 1 µM: read-out: p110 gamma Percent Inhibition
T4 construct: His (N); host or cells: SF9 insect cells (baculovirus)
Procedure, shortened: as §1

T1 sequence (P42336 whole entry): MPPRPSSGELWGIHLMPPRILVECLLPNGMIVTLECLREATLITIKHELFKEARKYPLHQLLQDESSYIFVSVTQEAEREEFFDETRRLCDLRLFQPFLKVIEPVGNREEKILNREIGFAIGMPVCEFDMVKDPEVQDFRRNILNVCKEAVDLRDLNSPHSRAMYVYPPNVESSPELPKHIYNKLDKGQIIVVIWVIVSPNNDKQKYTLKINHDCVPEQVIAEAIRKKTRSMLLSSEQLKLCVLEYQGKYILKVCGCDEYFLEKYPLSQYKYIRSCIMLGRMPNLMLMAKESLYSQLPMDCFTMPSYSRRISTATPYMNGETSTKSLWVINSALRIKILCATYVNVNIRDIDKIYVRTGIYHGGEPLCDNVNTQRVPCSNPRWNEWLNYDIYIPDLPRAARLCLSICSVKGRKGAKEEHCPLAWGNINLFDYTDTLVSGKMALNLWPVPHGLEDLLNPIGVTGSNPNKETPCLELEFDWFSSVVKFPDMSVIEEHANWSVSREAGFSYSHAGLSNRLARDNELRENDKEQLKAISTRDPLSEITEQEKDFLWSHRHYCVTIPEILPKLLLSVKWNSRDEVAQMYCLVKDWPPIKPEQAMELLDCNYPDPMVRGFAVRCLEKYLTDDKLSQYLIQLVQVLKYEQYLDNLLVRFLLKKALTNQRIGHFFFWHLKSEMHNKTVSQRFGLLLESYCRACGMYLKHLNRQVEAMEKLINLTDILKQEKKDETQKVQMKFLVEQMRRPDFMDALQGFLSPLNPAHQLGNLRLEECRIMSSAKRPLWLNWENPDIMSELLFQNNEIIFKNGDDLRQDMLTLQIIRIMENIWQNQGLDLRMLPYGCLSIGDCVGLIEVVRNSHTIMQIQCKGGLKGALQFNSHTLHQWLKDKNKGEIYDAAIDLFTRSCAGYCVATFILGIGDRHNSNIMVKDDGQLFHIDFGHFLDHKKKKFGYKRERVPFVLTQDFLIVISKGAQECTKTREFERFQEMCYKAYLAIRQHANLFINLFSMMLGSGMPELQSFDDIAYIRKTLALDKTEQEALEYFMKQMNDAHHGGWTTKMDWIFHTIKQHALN
T1 sequence (P27986 whole entry partner): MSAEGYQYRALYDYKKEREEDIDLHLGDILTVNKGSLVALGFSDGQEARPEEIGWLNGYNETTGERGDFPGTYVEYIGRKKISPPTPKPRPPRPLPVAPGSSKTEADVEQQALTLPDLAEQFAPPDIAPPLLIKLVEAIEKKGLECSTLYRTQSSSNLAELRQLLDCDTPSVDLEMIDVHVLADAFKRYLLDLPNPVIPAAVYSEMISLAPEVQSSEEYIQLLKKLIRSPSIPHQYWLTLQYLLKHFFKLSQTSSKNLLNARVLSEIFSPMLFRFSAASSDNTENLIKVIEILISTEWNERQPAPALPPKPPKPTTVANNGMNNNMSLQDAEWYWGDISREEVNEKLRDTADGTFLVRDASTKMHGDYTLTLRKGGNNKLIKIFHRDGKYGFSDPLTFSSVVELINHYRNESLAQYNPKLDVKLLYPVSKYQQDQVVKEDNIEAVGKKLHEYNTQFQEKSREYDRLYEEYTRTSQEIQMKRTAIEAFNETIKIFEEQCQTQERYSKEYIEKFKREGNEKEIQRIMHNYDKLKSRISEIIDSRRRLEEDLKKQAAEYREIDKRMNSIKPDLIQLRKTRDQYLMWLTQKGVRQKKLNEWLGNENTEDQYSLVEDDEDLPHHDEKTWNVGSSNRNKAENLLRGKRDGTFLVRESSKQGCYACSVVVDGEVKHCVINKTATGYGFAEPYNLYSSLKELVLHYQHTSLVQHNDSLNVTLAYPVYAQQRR
T2 sequence (P42338 whole entry): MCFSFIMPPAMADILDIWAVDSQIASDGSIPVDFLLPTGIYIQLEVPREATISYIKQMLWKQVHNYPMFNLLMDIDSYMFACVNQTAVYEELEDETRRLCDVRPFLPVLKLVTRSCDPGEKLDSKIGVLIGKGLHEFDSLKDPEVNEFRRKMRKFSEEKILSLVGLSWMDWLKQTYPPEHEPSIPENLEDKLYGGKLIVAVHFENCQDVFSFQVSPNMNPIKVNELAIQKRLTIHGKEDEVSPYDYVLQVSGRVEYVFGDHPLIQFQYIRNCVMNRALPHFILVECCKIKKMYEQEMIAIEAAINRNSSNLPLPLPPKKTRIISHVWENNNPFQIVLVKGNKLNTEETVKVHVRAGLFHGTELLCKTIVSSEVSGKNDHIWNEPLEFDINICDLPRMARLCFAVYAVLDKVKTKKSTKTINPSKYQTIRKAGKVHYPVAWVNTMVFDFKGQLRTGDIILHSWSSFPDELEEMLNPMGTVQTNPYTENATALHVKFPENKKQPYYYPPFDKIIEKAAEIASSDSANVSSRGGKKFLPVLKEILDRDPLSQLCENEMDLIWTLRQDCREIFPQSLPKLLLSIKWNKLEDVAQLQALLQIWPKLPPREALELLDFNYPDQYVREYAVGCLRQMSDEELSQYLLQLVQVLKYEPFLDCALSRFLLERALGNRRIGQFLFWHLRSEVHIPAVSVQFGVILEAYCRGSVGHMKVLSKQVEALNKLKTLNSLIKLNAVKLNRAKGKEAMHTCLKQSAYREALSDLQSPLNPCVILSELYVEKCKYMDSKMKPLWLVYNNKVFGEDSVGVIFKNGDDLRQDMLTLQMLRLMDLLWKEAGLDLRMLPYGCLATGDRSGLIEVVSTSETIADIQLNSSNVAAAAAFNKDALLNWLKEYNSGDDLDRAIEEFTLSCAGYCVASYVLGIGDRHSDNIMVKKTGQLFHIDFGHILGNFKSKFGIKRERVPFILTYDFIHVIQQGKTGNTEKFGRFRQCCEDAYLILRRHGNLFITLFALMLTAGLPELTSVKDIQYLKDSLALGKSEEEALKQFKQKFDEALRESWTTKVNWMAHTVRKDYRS
T2 sequence (P27986 whole entry partner): as the sequence (P27986 whole entry partner) above
T4 sequence (P48736 whole entry): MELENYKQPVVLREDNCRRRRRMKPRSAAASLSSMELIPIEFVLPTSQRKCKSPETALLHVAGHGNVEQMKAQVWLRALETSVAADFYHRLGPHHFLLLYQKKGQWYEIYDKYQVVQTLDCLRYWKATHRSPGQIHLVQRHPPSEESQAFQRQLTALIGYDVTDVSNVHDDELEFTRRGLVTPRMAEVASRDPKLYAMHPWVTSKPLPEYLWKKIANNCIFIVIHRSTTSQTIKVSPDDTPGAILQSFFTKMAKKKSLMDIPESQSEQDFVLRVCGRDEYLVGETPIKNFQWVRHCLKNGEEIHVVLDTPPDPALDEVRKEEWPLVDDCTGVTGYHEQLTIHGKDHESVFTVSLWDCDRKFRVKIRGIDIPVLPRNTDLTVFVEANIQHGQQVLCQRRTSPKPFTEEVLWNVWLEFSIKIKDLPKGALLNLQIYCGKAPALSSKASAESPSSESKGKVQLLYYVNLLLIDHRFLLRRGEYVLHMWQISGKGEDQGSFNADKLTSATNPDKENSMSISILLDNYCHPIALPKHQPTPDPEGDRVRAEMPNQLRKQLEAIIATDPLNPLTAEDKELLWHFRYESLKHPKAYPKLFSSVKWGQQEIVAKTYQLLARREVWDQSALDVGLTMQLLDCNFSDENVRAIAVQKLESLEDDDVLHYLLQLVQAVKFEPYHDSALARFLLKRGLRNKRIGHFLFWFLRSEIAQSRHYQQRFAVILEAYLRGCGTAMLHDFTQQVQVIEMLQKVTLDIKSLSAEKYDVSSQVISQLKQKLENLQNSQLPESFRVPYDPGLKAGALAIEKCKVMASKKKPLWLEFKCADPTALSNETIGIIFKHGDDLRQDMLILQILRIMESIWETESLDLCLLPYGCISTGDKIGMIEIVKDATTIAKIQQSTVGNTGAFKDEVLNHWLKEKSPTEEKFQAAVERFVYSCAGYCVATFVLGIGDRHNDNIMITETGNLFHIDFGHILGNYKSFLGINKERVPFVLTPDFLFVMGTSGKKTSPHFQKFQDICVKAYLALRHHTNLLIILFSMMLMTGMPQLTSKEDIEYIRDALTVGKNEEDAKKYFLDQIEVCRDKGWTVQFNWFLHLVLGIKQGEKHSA
T3 sequence (O00329 whole entry): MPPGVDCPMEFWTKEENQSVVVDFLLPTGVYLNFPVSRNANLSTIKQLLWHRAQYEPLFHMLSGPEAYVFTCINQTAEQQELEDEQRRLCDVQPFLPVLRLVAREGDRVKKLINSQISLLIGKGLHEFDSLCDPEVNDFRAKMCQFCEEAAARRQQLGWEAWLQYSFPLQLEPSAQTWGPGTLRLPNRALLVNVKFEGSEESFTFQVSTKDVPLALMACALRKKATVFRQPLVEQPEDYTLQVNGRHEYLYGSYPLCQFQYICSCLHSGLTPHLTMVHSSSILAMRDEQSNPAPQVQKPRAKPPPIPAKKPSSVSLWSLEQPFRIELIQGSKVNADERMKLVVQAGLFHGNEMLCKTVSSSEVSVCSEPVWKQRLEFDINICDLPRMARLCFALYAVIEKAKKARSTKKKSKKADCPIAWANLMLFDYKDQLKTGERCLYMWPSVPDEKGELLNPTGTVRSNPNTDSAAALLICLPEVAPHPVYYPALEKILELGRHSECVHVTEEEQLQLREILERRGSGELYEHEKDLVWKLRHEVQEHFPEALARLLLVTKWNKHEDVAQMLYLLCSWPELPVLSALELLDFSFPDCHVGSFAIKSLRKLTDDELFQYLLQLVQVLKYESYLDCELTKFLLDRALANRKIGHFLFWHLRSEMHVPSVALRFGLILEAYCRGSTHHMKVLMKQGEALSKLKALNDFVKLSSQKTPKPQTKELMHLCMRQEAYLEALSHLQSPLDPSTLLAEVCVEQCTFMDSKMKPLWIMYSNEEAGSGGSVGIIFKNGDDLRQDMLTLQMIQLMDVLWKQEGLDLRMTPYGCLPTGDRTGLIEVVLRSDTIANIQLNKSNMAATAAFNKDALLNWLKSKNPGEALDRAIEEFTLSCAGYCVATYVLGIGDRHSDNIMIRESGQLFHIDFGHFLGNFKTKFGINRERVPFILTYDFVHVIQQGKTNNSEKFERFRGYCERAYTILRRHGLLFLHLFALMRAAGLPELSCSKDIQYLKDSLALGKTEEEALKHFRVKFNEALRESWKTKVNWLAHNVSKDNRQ
T3 sequence (P27986 whole entry partner): as the sequence (P27986 whole entry partner) above

Compound | inhibition at 1.1 µM (Human PI3K alpha) | inhibition at 1.1 µM (Human PI3K beta) | inhibition at 1 µM (Human PI3K delta) | inhibition at 1 µM (Human PI3K gamma) | p110 alpha Percent Inhibition (Human PI3K alpha) | p110 gamma Percent Inhibition (Human PI3K gamma) | p110 beta Percent Inhibition (Human PI3K beta) | p110 delta Percent Inhibition (Human PI3K delta)
O=C(O)c1sc(N2CCOCC2)nc1Cc1cc2cc(Br)ccc2s1 [Compound 303] | 99% | 110% | 115% | 69% | – | – | – | –
CC(C)C(c1ccc(Cl)cc1)c1nc(N2CCOCC2)sc1C(=O)O (stereo not shown) [Compound 304] | 6% | 25% | 32% | 7% | – | – | – | –
COCC(c1ccc2ccccc2c1)c1c(C(=O)O)sc(N2CCOCC2)c1C#N (stereo not shown) [Compound 306] | 81% | 109% | 108% | 51% | – | – | – | –
N#Cc1c(N2CCOCC2)sc(C(=O)O)c1Cc1ccc2ccncc2c1 [Compound 309, 4-cyano-3-(isoquinolin-7-ylmethyl)-5-(morpholin-4-yl)thiophene-2-carboxylic acid] | 56% | 101% | 108% | 66% | – | – | – | –
O=C(O)c1sc(N2CCOCC2)nc1Cc1ccc2ccc(F)cc2c1 [Compound 310] | 34% | 106% | 105% | 64% | – | – | – | –
N#Cc1c(N2CCOCC2)sc(C(=O)O)c1Cc1ccc2sccc2c1 [Compound 311] | 55% | 104% | 105% | 64% | – | – | – | –
N#Cc1c(N2CCOCC2)sc(C(=O)O)c1Cc1cc2cc(F)ccc2[nH]1 [Compound 312] | 64% | 105% | 92% | 47% | – | – | – | –
N#Cc1c(N2CCOCC2)sc(C(=O)O)c1C(CCO)c1ccc2ccccc2c1 (stereo not shown) [Compound 313] | – | 117% | 86% | – | 73% | 30% | – | –
O=C(O)c1sc(N2CCOCC2)nc1Cc1cc2ccccc2cc1F [Compound 314] | 42% | 109% | 104% | 42% | – | – | – | –
N#Cc1c(N2CCOCC2)sc(C(=O)O)c1Cc1ccc2cc(F)ccc2c1 [Compound 315] | 97% | 110% | 114% | 75% | – | – | – | –
N#Cc1c(N2CCOCC2)sc(-c2nnn[nH]2)c1Cc1ccc2ccccc2c1 [Compound 316, 2-(morpholin-4-yl)-4-(2-naphthylmethyl)-5-(1H-tetrazol-5-yl)thiophene-3-carbonitrile] | 78% | 106% | 111% | 62% | – | – | – | –
CS(=O)(=O)NC(c1ccc(Cl)cc1)c1c(C(=O)O)sc(N2CCOCC2)c1C#N (stereo not shown) [Compound 317] | 20% | 77% | 70% | 29% | – | – | – | –
NC(=O)c1ccc2ccc(Cc3nc(N4CCOCC4)sc3C(=O)O)cc2c1 [Compound 318] | 18% | 96% | 76% | 14% | – | – | – | –
O=C(O)c1sc(N2CCOCC2)nc1Cc1ccc2ccccc2c1F [Compound 319] | 59% | 105% | 113% | 50% | – | – | – | –
O=C(O)c1sc(N2CCOCC2)c(F)c1Cc1ccc(Cl)c(Cl)c1 [Compound 320, 3-(3,4-dichlorobenzyl)-4-fluoro-5-morpholinothiophene-2-carboxylic acid] | 16% | 94% | 97% | 35% | – | – | – | –
CC(c1ccc(Cl)c(Cl)c1)c1c(C(=O)O)sc(N2CCOCC2)c1C#N (stereo not shown) [Compound 321] | 67% | – | – | 59% | – | – | 73% | 86%
N#Cc1c(N2CCOCC2)sc(C(=O)O)c1C(CCF)c1ccc2ccccc2c1 (stereo not shown) [Compound 322] | – | 104% | – | – | 64% | 28% | – | 67%
CC(C)(C)[S+]([O-])NC(c1ccc2ccccc2c1)c1c(C(=O)O)sc(N2CCOCC2)c1C#N (stereo not shown) [Compound 323] | 66% | 61% | 97% | 46% | – | – | – | –
N#Cc1ccc2ccc(Cc3nc(N4CCOCC4)sc3C(=O)O)cc2c1 [Compound 325] | 17% | 89% | 89% | 22% | – | – | – | –
